Activity calls are given as the source filed them. How the calls were made is not given here.

The test concerns MT1-MMP promoter luciferase reporter cells, luminescence. Kind of test: inhibitors of MT1-MMP promoter transcription, cell-based, luciferase reporter, luminescence (AID 618).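 Further: actives suppress MT1-MMP promoter-driven transcription so potencies describe inhibitors.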
Regarding `O=c1/c(=C/c2ccccn2)sc2nc3ccccc3n12`, the EC50 was 10 µM.
Regarding `O=C1/C(=C/Nc2ccc3c(c2)OCO3)CCc2ccccc21`, the EC50 was 0.81 µM.
For `CCN=C1NN=C(c2ccc(C)cc2)CS1`, the EC50 was 1.98 µM.
For the compound `COc1ccc(-n2ncc3c(NCC(C)C)ncnc32)cc1`, the EC50 was 6.31 µM.
On to `CC(=O)N(Cc1ccc(F)cc1)C1=C(NCCc2ccccc2)C(=O)c2ccccc2C1=O`, for which the EC50 was 12.2 µM.
Next, `CC(=O)Nc1ccc(SCC(=O)c2cc(C)n(Cc3cccs3)c2C)cc1`: 1.22 µM; `Oc1c(CN2CCc3ccccc3C2)cc(Cl)c2cccnc12`: 5.81 µM.
For `COC(=O)c1nn(-c2ccc3c(c2)CCN3C(C)=O)cc1O` the value was 0.61 µM.
For `O=C(O)CCSc1nnc(-c2ccc3c(c2)OCO3)o1`, the 50% effective concentration (EC50) is 29.7 µM.
In the case of `Clc1cccc(-c2nnc(-c3ccccc3)o2)c1`, the EC50 is 7.03 µM.
Turning to `O=c1c2c(nc3cc(-c4ccc(F)cc4)[nH]n13)CCCC2`, the EC50 is 6.48 µM.
With `Brc1ccc(-c2nc(-c3ccccn3)no2)o1`, the EC50 was 2.14 µM.
Turning to `COc1ccc(C(=O)Nn2c(SCC(=O)N3CCC(C)CC3)nc3ccccc3c2=O)cc1`, the EC50 was 1.98 µM.
With `Cc1cc(C(=O)CN2C(=O)c3ccccc3S2(=O)=O)c(C)n1CC1CCCO1` (stereo not drawn), the concentration giving a half-maximal response (EC50) is 0.11 µM.
For `CC(C)C(=O)Nc1ccc(NC(=O)c2ccccn2)cn1` the value was 6.27 µM.
In the case of `CCc1ccc(-c2cc(C(=O)Nn3cnnc3)c3ccccc3n2)cc1`, the 50% effective concentration (EC50) is 2.12 µM.
Turning to `CCOC(=O)C1CCCCN1C(=O)CCc1c(C)nc2cc(-c3ccccc3)nn2c1C` (stereo not drawn), the EC50 is 1.15 µM.
For the compound `Cc1nc2ccc(-c3nc4cc(N)ccc4o3)cc2[nH]1`, the 50% effective concentration (EC50) was 3.71 µM.
Turning to `O=C(Nc1nc2c(s1)CCCC2)C1COc2ccccc2O1` (stereo not drawn), the concentration for a half-maximal effect (EC50) is 2.4 µM.
For the compound `Clc1ccc(-c2nnc(N3CCCC3)nn2)cc1`, the EC50 is 6.38 µM.
Consider `c1ccc(-c2ccc(-c3ccccn3)nn2)nc1`, for which the EC50 was 4.2 µM.
Take `CN(C(=O)c1ccco1)c1nc2c(s1)CCCC2`: the EC50 is 7.12 µM.
For the compound `CCc1cc2c(=O)n(Cc3ccco3)c(SCc3c(C)noc3C)nc2s1`, the EC50 was > 50 µM (inactive).
Regarding `C=CCn1c(C)cc(C(=O)CSc2ccc(NC(C)=O)cc2)c1C`, the EC50 was 2.37 µM.
On to `Oc1ccc(Nc2nc(N3CCCC3)c3ccccc3n2)cc1`, for which the EC50 is 26.5 µM.
Regarding `Cc1cc(NCCCn2ccnc2)n2ncc(-c3ccc(Cl)cc3)c2n1`, the EC50 was 8.72 µM.
Turning to `CC(C)(C)c1ccc(C(=O)Nc2ccc(CC(=O)O)cc2)o1`, the EC50 is 0.23 µM.
On to `c1ccc(C2=NNC(=NC3CC3)SC2)cc1`, for which the 50% effective concentration (EC50) is 1.7 µM.
Turning to `CCCCOc1ccc(C(=O)C(CN2CCOCC2)c2ccccc2)cc1` (stereo not drawn), the EC50 was 13 µM.
Next, `COCCn1c(C)cc(C(=O)CSc2nnc3ccccn23)c1C`: 3.63 µM; `CCCc1cc(C(=O)Nc2nccs2)cs1`: 12.7 µM; `C=CCNc1ncnc2c1cnn2-c1ccc(OC)cc1`: 8.5 µM.
Consider `CCOC(=O)CNC(=O)CSc1ncnc2c1cnn2-c1ccc(C)cc1`, for which the EC50 is 28 µM.
Take `Nc1ccc2oc(-c3ccc4nc[nH]c4c3)nc2c1`: the EC50 is 4.29 µM.
In the case of `c1ccc(-c2noc(-c3cccs3)n2)nc1`, the EC50 is > 50 µM (inactive).
Regarding `Cc1cc(/C=N/n2cnnc2)c(C)n1-c1ccc(OCc2ccc(Cl)cc2Cl)cc1`, the EC50 is 9.47 µM.
In the case of `CCCCc1ccc(-c2nc(-c3ccncc3)no2)cc1`, the concentration for a half-maximal effect (EC50) was 13.4 µM.
For `Cc1ccc2nc(-c3cccc(N)c3)[nH]c2c1`, the EC50 is 2.8 µM.
Turning to `Cc1ccc(C(=O)CSc2nnnn2C(C)C)c(C)c1`, the EC50 is 1.7 µM.
For `O=C(Nc1ccc(N2CCCCC2)cc1)c1ccccc1` the value was 3.57 µM; for `COC(=O)c1ccc(-c2nc(-c3cccs3)no2)cc1`, 1.12 µM.
In the case of `Cc1ccc2nc(-c3cc(N)cc(N)c3)oc2c1`, the concentration giving a half-maximal response (EC50) is 1.57 µM.
Next, `Cc1ccc(-c2nnc(SCC(=O)Nc3ccccc3F)o2)cc1`: 0.6 µM.

The record behind these values is PubChem BioAssay AID618 (Sanford-Burnham Center for Chemical Genomics, 2007).
